≈ marks a conversion by molar mass, not a printed value. Positions of bridges follow the written chain, without caps; N, C: chain ends. Non-standard residues stand in square brackets, D forms with d. Residues, ends and D or L forms follow the SMILES beside them. *: point of attachment. Ileψ(thiazoline)Cys = CC[C@H](C)[C@H](N)C1=N[C@H](C(=O)*)CS1; dOrn = NCCC[C@@H](N)C(=O)O
Legend:
[1] = test system: Cystobacter velatus MCy8071; assay: Antibiotic resistance of producer strain MCy8071; format: cell-based; details: final concentration 50 μg ml^−1
Method: MCy8071 is resistant against the following antibiotics: ampicillin, gentamycin, hygromycin, polymycin, bacitracin, spectinomycin, neomycin, and fusidinic acid. Weak growth is possible with cephalosporin and kasugamycin and no growth is possible with thiostrepton, trimethoprin, kanamycin, and oxytetracycline (final concentration of all antibiotics was adjusted to 50 μg ml^−1).

[2] = test system: E. coli WT-3 [gyrA(S83L, D87G)]; assay: MIC microdilution, E. coli WT-3 [gyrA(S83L, D87G)]; format: cell-based, Escherichia coli; details: Escherichia coli, read-out: MIC E. coli WT-3 [gyrA(S83L, D87G)]
Method: (§1) Indicator strains used in susceptibility assays were either part of our strain collection or purchased from the German Collection of Microorgansims and Cell Cultures (DSMZ) or from the American Type Culture Collection (ATCC). E. coli strain WT and corresponding E. coli mutants were kindly provided by Prof. Dr. P. Heisig, Pharmaceutical Biology and Microbiology, University of Hamburg. E. coli strains JW0401-1 (WT) and Δtsx were obtained from the CGSC collection.
(§2) MIC values were determined in standardized microdilution assays. Overnight cultures were diluted in the appropriate growth medium to achieve an inoculum of 10^4-10^6 cfu/mL. Yeasts were grown in Myc medium (1% phytone peptone, 1% glucose, 50 mM HEPES, pH 7.0), S. pneumonia and Enterococcus spp. in tryptic soy broth (TSB: 1.7% peptone casein, 0.3% peptone soymeal, 0.25% glucose, 0.5% NaCl, 0.25% K2HPO4; pH 7.3); M. smegmatis in Middlebrook 7H9 medium supplemented with 10% Middlebrook ADC enrichment and 2 ml/I glycerol). All other listed bacteria were grown in Müller-Hinton broth (0.2% beef infusion solids, 1.75% casein hydrolysate, 0.15% starch, pH 7.4). Cystobactamides and reference drugs were added directly to the cultures in sterile 96-well plates as duplicates and serial dilutions were prepared. Microorganisms were grown on a microplate shaker (750 rpm, 30-37° C., 18-48 h), except S. pneumonia, which was grown at non-shaking conditions (37° C., 5% CO2, 18 h). Growth inhibition was assessed by visual inspection and the MIC was defined as the lowest concentration of compound that inhibited visible growth.

E. coli WT = assay: MIC microdilution, E. coli WT; format: cell-based, Escherichia coli; details: Escherichia coli; Gram-negative set; read-out: MIC E. coli WT
Method: as §1, §2

E. coli DSM-1116 = assay: MIC microdilution, E. coli DSM-1116; format: cell-based, Escherichia coli; details: Escherichia coli, DSM1116; Gram-negative set; read-out: MIC E. coli DSM-1116
Method: as §1, §2

[3] = test system: Proteus vulgaris DSM-2140; assay: MIC microdilution, P. vulgaris DSM-2140; format: cell-based; details: Proteus vulgaris, DSM2140; Gram-negative set; read-out: MIC P. vulgaris DSM-2140
Method: as §1, §2

[4] = test system: E. coli WT-III [marRΔ74bp]; assay: MIC microdilution, E. coli WT-III [marRΔ74bp]; format: cell-based, Escherichia coli; details: Gram-negative set
Method: as §1, §2

[5] = test system: E. coli DSM-26863 (tolC3); assay: MIC microdilution, E. coli DSM-26863 (tolC3); format: cell-based, Escherichia coli; details: Escherichia coli, DSM26863, read-out: MIC E. coli DSM-26863 (tolC3)
Method: as §1, §2

[6] = test system: P. aeruginosa DSM-24600 (ESBL); assay: MIC microdilution, P. aeruginosa DSM-24600 (ESBL); format: cell-based, Pseudomonas aeruginosa; details: Pseudomonas aeruginosa, DSM24600; Gram-negative set; read-out: MIC P. aeruginosa DSM-24600 (ESBL)
Method: as §1, §2

[7] = test system: Citrobacter freundii DSM-30039; assay: MIC microdilution, C. freundii DSM-30039; format: cell-based; details: Citrobacter freundii, DSM30039; Gram-negative set; read-out: MIC C. freundii DSM-30039
Method: as §1, §2

[8] = test system: Acinetobacter baumannii DSM-30008; assay: MIC microdilution, A. baumannii DSM-30008; format: cell-based; details: Acinetobacter baumannii, DSM30008; Gram-negative set; read-out: MIC A. baumannii DSM-30008
Method: as §1, §2

CC(=O)O[C@H]1C[C@@]2(C)[C@@H](C[C@@H](O)[C@H]3[C@@]4(C)CC[C@@H](O)[C@@H](C)[C@@H]4CC[C@@]32C)/C1=C(\CCC=C(C)C)C(=O)O [fusidinic acid]
growth of strain MCy8071 in presence of antibiotic [1]: resistant

CC1(C)S[C@@H]2[C@H](NC(=O)[C@H](N)c3ccccc3)C(=O)N2[C@H]1C(=O)O [ampicillin]
growth of strain MCy8071 in presence of antibiotic [1]: resistant

CCOc1cc(C(=O)O)ccc1NC(=O)c1ccc(NC(=O)c2ccc(NC(=O)C(NC(=O)c3ccc(NC(=O)c4ccc([N+](=O)[O-])cc4)cc3)C(OC)C(N)=O)cc2)c(OC(C)C)c1O (stereo not shown) [Cys 905-2]
MIC [2]: > 64 µg/mL
MIC (E. coli WT): 4 µg/mL (≈ 4.42 µM)
MIC (E. coli DSM-1116): 8 µg/mL (≈ 8.83 µM)
MIC [3]: 32 µg/mL (≈ 35.3 µM)
MIC E. coli WT-III [marRΔ74bp] [4]: >64 µg/mL
MIC [5]: 2 µg/mL (≈ 2.21 µM)
MIC [6]: > 64 µg/mL
MIC [7]: 8 µg/mL (≈ 8.83 µM)
MIC [8]: 64 µg/mL (≈ 70.7 µM)

CCC(C)Oc1cc(C(=O)O)ccc1NC(=O)c1ccc(NC(=O)c2ccc(NC(=O)C(OC)C(NC(=O)c3ccc(NC(=O)c4ccc([N+](=O)[O-])cc4)cc3)C(=O)O)cc2)c(OC(C)C)c1O (stereo not shown) [Cys 934-2]
MIC [2]: > 64 µg/mL
MIC (E. coli WT): > 64 µg/mL
MIC (E. coli DSM-1116): > 64 µg/mL
MIC [3]: > 64 µg/mL
MIC E. coli WT-III [marRΔ74bp] [4]: >64 µg/mL
MIC [5]: 32 µg/mL (≈ 34.2 µM)
MIC [6]: > 64 µg/mL
MIC [7]: > 64 µg/mL
MIC [8]: > 64 µg/mL

COC(C(=O)O)C(NC(=O)c1ccc(NC(=O)c2ccc([N+](=O)[O-])cc2)cc1)C(=O)Nc1ccc(C(=O)Nc2ccc(C(=O)Nc3ccc(C(=O)O)cc3OC(C)C)c(O)c2OC(C)C)cc1 (stereo not shown) [Cys 920-1]
MIC [2]: > 64 µg/mL
MIC (E. coli WT): > 64 µg/mL
MIC (E. coli DSM-1116): > 64 µg/mL
MIC [3]: > 64 µg/mL
MIC E. coli WT-III [marRΔ74bp] [4]: >64 µg/mL
MIC [5]: 64 µg/mL (≈ 69.5 µM)
MIC [6]: > 64 µg/mL
MIC [7]: > 64 µg/mL
MIC [8]: > 64 µg/mL

C[C@H]1O[C@H](O[C@H]2[C@H](O)[C@@H](O)[C@@H](O)[C@H](O)[C@@H]2O)[C@@H](N)C[C@@H]1NC(=N)C(=O)O [kasugamycin]
growth of strain MCy8071 in presence of antibiotic [1]: Weak growth

COC(C(N)=O)C(NC(=O)c1ccc(NC(=O)c2ccc([N+](=O)[O-])cc2)cc1)C(=O)Nc1ccc(C(=O)Nc2ccc(C(=O)Nc3ccc(C(=O)O)c(O)c3OC(C)C)c(O)c2OC(C)C)cc1 (stereo not shown) [Cys 935-2]
MIC [2]: 2 µg/mL (≈ 2.14 µM)
MIC (E. coli WT): 0.5 µg/mL (≈ 0.534 µM)
MIC (E. coli DSM-1116): 0.5 µg/mL (≈ 0.534 µM)
MIC [3]: 1 µg/mL (≈ 1.07 µM)
MIC E. coli WT-III [marRΔ74bp] [4]: 2 µg/mL (≈ 2.14 µM)
MIC [5]: 0.25 µg/mL (≈ 0.267 µM)
MIC [6]: 8 µg/mL (≈ 8.55 µM)
MIC [7]: 1 µg/mL (≈ 1.07 µM)
MIC [8]: 2 µg/mL (≈ 2.14 µM)

neomycin
growth of strain MCy8071 in presence of antibiotic [1]: resistant

CC[C@H](C)[C@H](N)C1=N[C@H](C(=O)N[C@@H](CC(C)C)C(=O)N[C@H](CCC(=O)O)C(=O)N[C@H](C(=O)N[C@H]2CCCCNC(=O)[C@H](CC(N)=O)NC(=O)[C@@H](CC(=O)O)NC(=O)[C@H](Cc3cnc[nH]3)NC(=O)[C@@H](Cc3ccccc3)NC(=O)[C@H]([C@@H](C)CC)NC(=O)[C@@H](CCCN)NC2=O)[C@@H](C)CC)CS1 [bacitracin] ({Ileψ(thiazoline)Cys}-L[dE]IK[dOrn]I[dF]H[dD]N; lactam 4-C)
growth of strain MCy8071 in presence of antibiotic [1]: resistant

COc1cc(Cc2cnc(N)nc2N)cc(OC)c1OC [trimethoprin]
growth of strain MCy8071 in presence of antibiotic [1]: no growth

CN[C@@H]1[C@H](O)[C@H](NC)[C@H]2O[C@@]3(O)C(=O)C[C@@H](C)O[C@H]3O[C@@H]2[C@H]1O [spectinomycin]
growth of strain MCy8071 in presence of antibiotic [1]: resistant

polymycin
growth of strain MCy8071 in presence of antibiotic [1]: resistant

gentamycin
growth of strain MCy8071 in presence of antibiotic [1]: resistant

C=C(NC(=O)C(=C)NC(=O)c1csc(C2=N[C@@H]3c4csc(n4)[C@H]4NC(=O)c5csc(n5)[C@H]([C@](C)(O)[C@@H](C)O)NC(=O)[C@H]5CSC(=N5)/C(=C/C)NC(=O)[C@H]([C@@H](C)O)NC(=O)c5csc(n5)[C@]3(CC2)NC(=O)[C@H](C)NC(=O)C(=C)NC(=O)[C@H](C)NC(=O)[C@H]([C@@H](C)CC)N[C@@H]2C=Cc3c([C@H](C)O)cc(nc3[C@H]2O)C(=O)O[C@@H]4C)n1)C(N)=O [thiostrepton]
growth of strain MCy8071 in presence of antibiotic [1]: no growth

From patent US10519099B2, “Cystobactamides” (priority 2014, dated 2019)
